From patent publication US20210251228A1, “METHODS FOR REPELLING DROSOPHILA SPECIES USING 2-PENTYLFURAN” (The United States of America, as represented by the …, priority 2020, published 2021) come the findings set out here.

For test [1], the system named is Drosophila suzukii antennae. The test can be described thus: Coupled GC-EAD of bread dough headspace volatiles on SWD antennae. The following applies: adult female SWD antennae; adsorbent extract of bread dough; authentic standards 10 ng/μl. How it is done: Adsorbent Sampling from Bread Dough: The bread dough bait consisted of whole-wheat flour (17.25 g), sugar (2 g), dry active bread yeast (0.325 g), apple cider vinegar (1 ml), and water (25 ml) (Cha, D. H., et al., J. Econ. Entomol., 111: 645-652 (2018a)). Headspace volatiles were collected from 10 g bread dough ball placed in a screened specimen cup (130 ml) by using 2.41 closed volatile collection chambers (ARS, Inc., Gainesville, Fla.) with one air inlet adapter (7 mm ID) on the top and an outlet adapter (7 mm ID) on the bottom wall. Clean air from a filtering and delivery system (ARS Inc., Gainesville, Fla.) was pushed into the chamber at 0.7 L/min through the top inlet port, and volatiles from the dough were pushed out through volatile traps (activated charcoal adsorbent filters, ORBO™32-small, Supelco Inc., Bellefonte, Pa.) on the bottom of the chamber. An additional ORBO™ filter was used to ensure that no breakthrough occurred. For each sample of dough (2 dough samples total), adsorbent collections were made over a 2-day period at room temperature using the same volatile trap. Volatiles were eluted with 600 μl methylene chloride every 24 h from the filters of a given dough sample and combined across the total of the collecting days (from 2 dough samples). The combined extract was kept at −20° C. and subjected to as chromatography-electroantennographic detection (GC-EAD) and gas chromatography-mass spectrometry (GC-MS) analyses.
Coupled Gas Chromatographic-Electroantennographic Detection (GC-EAD): Coupled GC-EAD analysis was performed as described previously (Cha, D. H., J. Chem. Ecol., 34: 1180-1189 (2008); Cha, D. H., et al., J. Chem. Ecol., 38: 1419-1431 (2012)) using a Hewlett Packard 5890 Series II gas chromatograph equipped with either a non-polar DB-5 ms capillary column (30 m×0.25 mm ID, 0.25 μm film thickness; Agilent Technologies, Wilmington, Del.) or polar DB-WAXetr capillary column (30 m×0.25 mm ID, 0.25 μm film thickness; Agilent Technologies, Wilmington, Del.) in the splitless mode with 1 min sampling time. The oven temperature was programmed at 40° C. for 5 min, then increased by 15° C./min to 250° C., and held for 5 min. Injector and detector temperatures were set at 250° C. Nitrogen gas was the carrier at a flow of 2 ml/min. The column effluent was split 1:1 in the oven via a “Y” glass splitter (Supelco). One arm of the splitter led to the flame ionization detector (FID) (250° C.) and the other to the heated EAD port (250° C.). Whole head preparations were made of individual flies, age 5-9 day, for GC-EAD analysis (Cha et al. 2012). The head was separated from the body and its antennae positioned between two gold wire electrodes immersed in saline filled (Drosophila ringer solution; 46 mmol NaCl, 182 mmol KCl, 3 mmol CaCl2, and 10 mmol Tris HCl at pH 7.2) micropipettes in an acrylic holder. The antennal holder was placed inside a humidified condenser and maintained at 5° C. The output signal from the antenna was amplified by a customized high input impedance DC amplifier and recorded on an HP 3390A integrator.
Chemical Analysis: GC-MS was carried out with an Agilent 5975MS coupled with a Agilent 6890GC equipped with either a DB-5 ms capillary column (30 m×0.25 mm ID, 0.25 μm film thickness; Agilent Technologies, Wilmington, Del.) or DB-WAXetr capillary column (30 m×0.25 mm ID, 0.25 μm film thickness; Agilent Technologies, Wilmington, Del.). Helium was the carrier gas (1.0 ml/min constant flow). The GC temperature program was the same as used for the GC-EAD analyses. The MS transfer-line was held at 260° C., the MS source at 230° C., and the MS quad at 150° C. Mass spectra were taken in EI mode (at 70 eV) in the range from 40 m/z to 350 m/z with a scanning rate of 4.58 scan/s. GC-MS data were processed with the MDS-Chemstation software (Agilent Technologies). […]

Test [2] concerns Drosophila suzukii. The test can be described thus: Field test 1: unknown release rate of 2-pentylfuran, SWD oviposition on field raspberries. It is filed as in vivo. The following applies: 0.5 ml 50% 2-pentylfuran in mineral oil in vial, 3 days, N=16. How it is done:
Field Test 1: Effect of Unknown Release Rate of 2-Pentylfuran on SWD Oviposition. The objective of this field test was to confirm the repellent activity of 2-pentylfuran under field conditions. This experiment was conducted using a mixed variety planting of fall-bearing raspberries (primocane raspberries) at Cornell AgriTech in Geneva, N.Y. where we randomly assigned 32 fruiting clusters to one of two treatments: 1.5 ml centrifuge vial with 3 mm hole in lid and containing 0.5 ml 50% 2-pentylfuran in 1:1 ratio with mineral oil or vial with mineral oil only (similar to Wallingford et al. 2016a). After three days we collected ripe raspberries from each cluster and monitored SWD emergence over the 2 weeks in the laboratory (25 C, 55% RH, 16:8 L:D).
Statistical Analyses: Trap catch data from multiple-choice assay and two-choice assay were analyzed in a randomized block design with block as a random factor and different EAD-active compounds as a fixed factor using Poisson distribution with log link function and maximum likelihood estimation (Proc Glimmix, SAS Institute, SAS/STAT 9.2 User's Guide, Second Edition, 2009, SAS Institute Inc., Cary, N.C.). […]

`CCCCCc1ccco1` [2-pentylfuran]: the “GC-EAD activity (antennal response)” value in test [1] is given as “active”. Also, the “reduction of number of eggs per raspberry fruit” value in test [2] worked out at 30%.
